Measurements published in US20250136593A1, “DEGRADATION AGENT AND USE THEREOF” (HITGEN INC., priority 2021, published 2025).

Key:
[1] = tested on: MOLT-4 cells; test: Inhibitory activity on MOLT4 cell proliferation by Cell Titer-Glo method; format: cell-based; conditions: Homo sapiens, 72 hours incubation, read-out: IC50 concentration for inhibiting MOLT-4 cells
[2] = molecular target: ternary complex between BCL-XL and CRBN-DDB1 (Homo sapiens, UniProt Q07817+Q96SW2); test: Compound-induced formation of ternary complex between BCL-XL and CRBN-DDB1 by AlphaLISA; format: biochemical; design: key: the number of + indicates the intensity of AlphaLISA peak signal; ++: the number of + indicates the intensity of AlphaLISA peak signal; +++: the number of + indicates the intensity of AlphaLISA peak signal; ++++: the number of + indicates the intensity of AlphaLISA peak signal; +++++: the number of + indicates the intensity of AlphaLISA peak signal; conditions: peak signal; 60 nM Strep-BCL-XL and 60 nM His-CRBN/DDB1
Experimental: Experimental Example 4, Detection of Compound-Induced Formation of Ternary Complex Between BCL-XL and CRBN-DDB1 by AlphaLISA Method
Na2HPO4(Sigma), NaH2PO4(Sigma), sodium chloride (Sigma), Tween-20 (Sigma), AlphaLISA®Nikel Chelate Acceptor beads (PerkinElmer), Strep-Tactin® Alpha Donor beads (PerkinElmer), Assay plate (Corning), Strep-BCl-XL (HitGen), His-CRBN/DDB1 (HitGen).
DMSO was used to dissolve the dry powder of the test compound to obtain a 10.00 mM solution. The instrument ECHO was used to perform gradient dilution of the compound, which was then added to a 384-well reaction plate (Corning, Cat #3824), so that the final concentration of DMSO in the entire reaction system (10.0 μL) was less than 1%, and the same amount of DMSO was added and used as a control.
Strep-BCl-XL and His-CRBN/DDB1 proteins were dissolved in buffer (10 mM NaH2PO4, 40 mM Na2HPO4, 150 mM sodium chloride, 0.03% Tween20, pH=7.4) to obtain a protein mixture of 60 nM Strep-BCL-XL and 60 nM His-CRBN/DDB1, the protein mixture (5ul/well) was added to the 384-well plate in which the compound had been added, and incubated at room temperature for 30 minutes, then 5 μl of a detection mixture with 50 μg/ml AlphaLISA®Nikel Chelate Acceptor beads and 50 μg/ml Strep-Tactin® Alpha Donor beads was added, and incubated at room temperature for 2 hours; and then a microplate reader was used to detect AlphaLISA signal.
Fifth order polynomial or Sixth order polynomial in Polynomial of Graphpad 6.0 was used for data fitting.

[3] = molecular target: T1, BCL-XL protein in MOLT-4 cells (Homo sapiens, UniProt Q07817); test: Degradation effect on BCL-XL protein in MOLT-4 cells by Western Blot; format: cell-based; conditions: 24 hours incubation, corrected by β-actin, read-out: DC50 concentration for BCL-XL protein degradation
T1 construct: host or cells: MOLT-4
Experimental: Experimental Example 6. Experiment to Evaluate Degradation Effect of Compound on BCL-XL Protein in MOLT-4 Cells by Western Blot Method
SDS-PAGE gel (4-12%) (Genscript), PMSF 100 mM (Biyotime), Cocktail 100× (Biyotime), P/S, RPMI medium modified (Hyclone), FBS (Corning), 4× loading buffer (Thermo), Bcl-xL (54H6) Rabbit mAb (CST), Anti-rabbit IgG-HRP (CST), Anti-β-actin-HRP (Abcam), RIPA (Biyotime), Tween-20, MOLT-4 cell (ATCC), BCA Protein Assay Kit (TIANGEN), Immobilon Western Chemilunescent HRP Substrate (Millipore).
1) Incubation of compound and cells: 1 mL of 10^6 MOLT-4 cells (culture medium: 89% RPMI, 10% FBS, 1% P/S) was inoculated in a 6-well cell culture plate, the compound was subjected to gradient dilution with DMSO, then the compound diluted in DMSO in gradient was diluted again into the MOLT-4 medium, and 1 mL of the diluted compound was directly added to the 6-well plate with the cultured cells and incubated for 24 hours.
2) Protein extraction: After the compound and the cells were co-incubated for 24 hours, the cells were collected and placed in a 1.5 mL centrifuge tube, washed twice with ice-cold PBS, the supernatant was discarded, then 150 μL of RIPA lysis buffer was added and lysis was carried out on ice for 30 minutes; then the cell lysate was centrifuged in a low-temperature centrifuge at 15,000 rpm for 10 minutes, and the supernatant was collected; and BCA Protein Assay Kit was used to quantify the protein in the resulting cell lysate supernatant. 4× loading buffer was added to the cell lysate supernatant and incubated at 85° C. for 10 minutes to obtain a sample. The obtained sample was stored in −80° C. refrigerator for the use on the next day. 20 μg of the sample was taken to perform SDS-Page and transmembrane, 5% skim milk was used to block the membrane for 1 hour, and then Bcl-xL (54H6) rabbit mAb, Anti-rabbit IgG-HRP, Anti-β-actin-HRP were used for incubation. After incubation, Immobilon Western Chemiluminescent HRP Substrate was used for color development, and a gel analyzer was used for analysis.
Analysis was performed with a grayscale analysis software, the amount of BCL-XL protein was corrected by the amount of β-actin, and then Graphpad 6 was used to calculate DC50.

T1 sequence (Q07817 whole entry): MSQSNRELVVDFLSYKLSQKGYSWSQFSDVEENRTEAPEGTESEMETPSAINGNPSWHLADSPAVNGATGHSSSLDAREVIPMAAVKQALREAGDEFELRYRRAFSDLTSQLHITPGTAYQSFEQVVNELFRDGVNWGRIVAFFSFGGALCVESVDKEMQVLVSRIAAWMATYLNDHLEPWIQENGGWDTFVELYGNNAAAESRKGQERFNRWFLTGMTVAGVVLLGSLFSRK
ternary complex between BCL-XL and CRBN-DDB1, sequence (Q07817 whole entry): as above
ternary complex between BCL-XL and CRBN-DDB1, sequence (Q96SW2 whole entry): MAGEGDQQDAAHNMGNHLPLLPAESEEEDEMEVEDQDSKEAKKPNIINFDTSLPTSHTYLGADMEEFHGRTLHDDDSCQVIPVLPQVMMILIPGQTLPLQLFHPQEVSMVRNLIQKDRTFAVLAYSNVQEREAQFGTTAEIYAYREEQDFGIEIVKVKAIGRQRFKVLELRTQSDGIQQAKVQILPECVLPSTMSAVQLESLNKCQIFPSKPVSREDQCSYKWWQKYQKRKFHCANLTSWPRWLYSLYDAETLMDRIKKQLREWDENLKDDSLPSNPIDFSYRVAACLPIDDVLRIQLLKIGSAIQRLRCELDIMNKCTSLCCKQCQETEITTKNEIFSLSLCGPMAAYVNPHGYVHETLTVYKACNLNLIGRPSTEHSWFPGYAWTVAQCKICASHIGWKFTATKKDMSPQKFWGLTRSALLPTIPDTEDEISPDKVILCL
ternary complex between BCL-XL and CRBN-DDB1, sequence (Q16531 whole entry partner): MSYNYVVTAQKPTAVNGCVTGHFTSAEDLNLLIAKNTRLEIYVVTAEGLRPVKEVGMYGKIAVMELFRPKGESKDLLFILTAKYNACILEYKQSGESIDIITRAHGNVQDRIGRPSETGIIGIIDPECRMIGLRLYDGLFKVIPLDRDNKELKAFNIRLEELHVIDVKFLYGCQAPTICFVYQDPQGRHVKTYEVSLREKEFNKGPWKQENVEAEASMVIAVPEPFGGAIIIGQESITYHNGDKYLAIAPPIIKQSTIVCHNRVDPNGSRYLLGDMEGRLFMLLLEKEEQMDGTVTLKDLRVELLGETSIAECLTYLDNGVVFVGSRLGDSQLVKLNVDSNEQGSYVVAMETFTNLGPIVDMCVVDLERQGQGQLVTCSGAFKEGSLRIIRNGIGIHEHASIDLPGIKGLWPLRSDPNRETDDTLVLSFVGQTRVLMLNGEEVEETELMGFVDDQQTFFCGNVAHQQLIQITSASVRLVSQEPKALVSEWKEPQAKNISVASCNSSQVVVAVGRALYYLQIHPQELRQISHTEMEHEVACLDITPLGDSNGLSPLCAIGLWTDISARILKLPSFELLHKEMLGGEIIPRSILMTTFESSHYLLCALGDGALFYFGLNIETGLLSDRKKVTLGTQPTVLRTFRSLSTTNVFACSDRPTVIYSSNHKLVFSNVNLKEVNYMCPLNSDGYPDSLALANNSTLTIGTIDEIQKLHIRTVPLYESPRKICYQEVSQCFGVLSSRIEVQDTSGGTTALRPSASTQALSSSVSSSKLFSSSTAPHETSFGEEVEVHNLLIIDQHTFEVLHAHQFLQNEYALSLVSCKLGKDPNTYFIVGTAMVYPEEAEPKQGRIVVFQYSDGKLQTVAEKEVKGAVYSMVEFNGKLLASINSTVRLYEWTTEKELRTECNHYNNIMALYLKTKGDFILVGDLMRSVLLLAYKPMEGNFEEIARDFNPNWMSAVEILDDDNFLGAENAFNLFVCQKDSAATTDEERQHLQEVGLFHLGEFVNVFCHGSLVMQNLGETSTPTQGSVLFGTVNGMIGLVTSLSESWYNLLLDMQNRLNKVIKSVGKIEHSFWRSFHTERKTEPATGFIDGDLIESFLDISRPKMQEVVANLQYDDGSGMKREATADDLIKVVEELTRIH

IC50 [1] [µM]	AlphaLISA signal (PROTAC ternary complex signal intensity) [2]	DC50 [3] [µM]	Structure (SMILES)
50 to 100	+	50 to 100	O=C1CCC(N2C(=O)c3ccc(N4CCN(CC5CCN(CC#Cc6ccc(/C=C/c7ccc(C(=O)N8CCc9cnc(-c%10cnc%11ccccc%11c%10)nc9C8)cc7)cc6)CC5)CC4)cc3C2=O)C(=O)N1 (stereo not drawn) [Compound F1B-2]
1 to 10	++	1 to 10	O=C1CCC(N2Cc3cc(N4CCC(CN5CCN(CC#Cc6ccc(/C=C/c7ccc(C(=O)N8CCc9cnc(-c%10cnc%11ccccc%11c%10)nc9C8)cc7)cc6)CC5)CC4)ccc3C2=O)C(=O)N1 (stereo not drawn) [Compound F2-4]
